In US9242982B2, “Pyridopyrimidine based derivatives as potential phosphodiesterase 3 (PDE3) inhibitors and a process for the preparation thereof” (COUNCIL OF SCIENTIFIC & INDUSTRIAL RESEARCH, priority 2013, dated 2016) one finds IC50 data, which are given here for six compounds.

Sequence of PDE3 enzyme (Q14432 whole entry): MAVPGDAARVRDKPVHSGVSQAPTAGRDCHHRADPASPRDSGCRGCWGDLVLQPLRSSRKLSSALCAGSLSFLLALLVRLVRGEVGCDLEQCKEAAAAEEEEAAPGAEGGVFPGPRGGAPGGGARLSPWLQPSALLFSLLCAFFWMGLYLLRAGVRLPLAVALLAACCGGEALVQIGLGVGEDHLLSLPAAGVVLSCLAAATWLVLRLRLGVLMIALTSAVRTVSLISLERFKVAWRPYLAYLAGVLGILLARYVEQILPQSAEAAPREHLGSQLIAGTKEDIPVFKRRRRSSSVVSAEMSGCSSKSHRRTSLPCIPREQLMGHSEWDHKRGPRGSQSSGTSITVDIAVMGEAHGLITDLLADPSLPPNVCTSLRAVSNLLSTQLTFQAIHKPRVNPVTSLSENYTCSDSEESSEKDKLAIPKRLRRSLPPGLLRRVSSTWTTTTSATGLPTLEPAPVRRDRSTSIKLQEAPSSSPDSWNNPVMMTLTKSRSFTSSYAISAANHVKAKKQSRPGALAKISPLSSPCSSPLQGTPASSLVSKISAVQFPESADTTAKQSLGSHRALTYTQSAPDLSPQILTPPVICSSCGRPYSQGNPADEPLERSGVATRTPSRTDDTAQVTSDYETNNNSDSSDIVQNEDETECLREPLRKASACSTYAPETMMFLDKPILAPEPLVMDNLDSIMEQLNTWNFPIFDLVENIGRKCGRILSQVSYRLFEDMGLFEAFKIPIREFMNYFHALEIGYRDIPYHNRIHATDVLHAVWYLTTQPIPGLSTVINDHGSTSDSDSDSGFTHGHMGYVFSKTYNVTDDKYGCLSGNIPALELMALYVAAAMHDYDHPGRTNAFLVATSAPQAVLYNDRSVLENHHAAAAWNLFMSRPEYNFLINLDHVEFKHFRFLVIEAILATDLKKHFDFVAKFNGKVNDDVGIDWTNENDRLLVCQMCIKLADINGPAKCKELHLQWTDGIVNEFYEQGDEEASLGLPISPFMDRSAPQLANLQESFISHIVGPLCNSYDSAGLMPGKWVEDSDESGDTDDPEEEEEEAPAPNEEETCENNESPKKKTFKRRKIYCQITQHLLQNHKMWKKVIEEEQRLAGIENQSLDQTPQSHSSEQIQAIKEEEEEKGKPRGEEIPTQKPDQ

The assay concerns the target PDE3 enzyme (Homo sapiens (Human), UniProt Q14432). Nature of the assay: PDE3 inhibition assay (BIOMOL GREEN Quantizyme Assay System). The format is biochemical. To be noted: PDE3 from platelets isolated from human blood; cAMP substrate; 1 hour at 37° C.; read at 620 nm. On the procedure:
PDE3 inhibition assay was performed a BIOMOL GREEN™ Quantizyme Assay System (catalogue No. BML-AK800-0001). The Platelets isolated from human blood were used as a source of PDE3 enzyme. 10 mL blood collected in a vacutainer tube (containing K3 EDTA) and centrifuged at 190×g for 15 min at room temperature. Top layer (platelet rich plasma) collected, centrifuged at 2500 g for 5 min at 22° C. (Room temp.) The pellet was washed with 2 ml of 50 mM tris buffer (pH-7.4) containing 1 mM MgCl2 and centrifuged at 2500 g for 5 min. Then 200 μl of assay buffer (from PDE kit, Enzo Life Sciences) was added to the pellet and sonicated at 30 s per ml. Pellet was freeze thawed for three times (−80° C.) in order to rupture the platelet membrane and release the PDE enzyme. Then the cell homogenate was centrifuged at 2500 rpm for 5 min. Supernatant was collected and used as source for PDE3 enzyme. In 96 well plate (Prod. No. BML-KI101), we added supernatant having PDE3 enzyme, PDE3 assay buffer, cAMP substrate, 5′ nucleotidase and test or standard compound and incubated for 1 hour at 37° C. The reaction was arrested by the addition 100 μl BIOMOL GREEN reagent incubated in room temp for 20 min. The green color developed was measured at 620 nm.
The in vitro Phosphodiestarase (PDE3) inhibitory activity of compounds 1a-q, were measured using a BIOMOL GREEN™ Quantizyme Assay System (catalogue No. BML-AK800-0001). The basic principle for this assay is the cleavage of c-AMP or c-GMP into their respective nucleotide by a cyclic nucleotide phosphodiesterase. The nucleotide (AMP or GMP) released is further cleaved into the nucleoside and phosphate by the enzyme 5′-nucleotidase. The extent of phosphate released is directly proportional to the PDE activity. In this screening method, the released phosphate by the enzymatic cleavage is quantified using BIOMOL GREEN reagent in a modified malachite green assay. The resulting green colour with λmax at 620 nm is directly proportional to the released phosphate and then PDE activity.
As to `Cn1c(=O)c2cc(Cc3ccccc3F)c(=O)[nH]c2n(C)c1=O` [Compound 1b, 6-(2-Fluorobenzyl)-1,3-dimethyl-1,2,3,4,7,8-hexahydropyrido[2,3-d]pyrimidine-2,4,7-trione], the IC50 came out at 48.8 nM.
Compound `Cn1c(=O)c2cc(Cc3ccccc3)c(=O)[nH]c2n(C)c1=O` [Compound 1a, 6-Benzyl-1,3-dimethyl-1,2,3,4,7,8-hexahydropyrido[2,3-d]pyrimidine-2,4,7-trione] had a 50% inhibitory concentration (IC50) of 11800 nM.
The compound `Cn1c(=O)c2cc(Cc3cccc(F)c3)c(=O)[nH]c2n(C)c1=O` [Compound 1c, 6-(3-Fluorobenzyl)-1,3-dimethyl-1,2,3,4,7,8-hexahydropyrido[2,3-d]pyrimidine-2,4,7-trione] displayed an IC50 of 32.3 nM.
The result for `Cn1c(=O)c2cc(Cc3ccccc3Br)c(=O)[nH]c2n(C)c1=O` [Compound 1i, 6-(2-Bromobenzyl)-1,3-dimethyl-1,2,3,4,7,8-hexahydropyrido[2,3-d]pyrimidine-2,4,7-trione] reads 6.6 nM.
For the compound `Cn1c(=O)c2cc(Cc3ccc(Br)cc3)c(=O)[nH]c2n(C)c1=O` [Compound 1k, 6-(4-Bromobenzyl)-1,3-dimethyl-1,2,3,4,7,8-hexahydropyrido[2,3-d]pyrimidine-2,4,7-trione], the concentration for half-maximal inhibition (IC50) amounted to 4.8 nM. This IC50 and that of the compound before are within 1.5-fold of each other.
Turning to `Cn1c(=O)c2cc(Cc3ccc(Cl)cc3)c(=O)[nH]c2n(C)c1=O` [Compound 1g, 6-(4-Chlorobenzyl)-1,3-dimethyl-1,2,3,4,7,8-hexahydropyrido[2,3-d]pyrimidine-2,4,7-trione], inhibition was half-maximal at 12.5 nM (IC50).
